Measurements published in the NIST ThermoML archive (doi:10.1021/acs.jced.7b00440).
Numbers after ± are expanded uncertainties.

Conditions: 100 kPa, Liquid; for viscosity: Capillary tube (Ostwald / Ubbelohde) method; for mass density: Vibrating tube method

SMILES	viscosity (293.15 K)	mass density (293.15 K)	viscosity (298.15 K)	mass density (298.15 K)	viscosity (303.15 K)	mass density (303.15 K)	viscosity (308.15 K)	mass density (308.15 K)	viscosity (313.15 K)	mass density (313.15 K)	viscosity (318.15 K)	mass density (318.15 K)	viscosity (323.15 K)	mass density (323.15 K)	viscosity (328.15 K)	mass density (328.15 K)	viscosity (333.15 K)	mass density (333.15 K)
CC(C)CO [2-methyl-1-propanol]	4.077 ± 0.079 mPa·s	801.98 ± 0.27 kg/m3	3.394 ± 0.066 mPa·s	798.13 ± 0.27 kg/m3	2.949 ± 0.057 mPa·s	794.24 ± 0.27 kg/m3	2.54 ± 0.049 mPa·s	790.29 ± 0.27 kg/m3	2.208 ± 0.043 mPa·s	786.3 ± 0.27 kg/m3	1.855 ± 0.036 mPa·s	782.24 ± 0.27 kg/m3	1.621 ± 0.032 mPa·s	778.12 ± 0.27 kg/m3	1.425 ± 0.028 mPa·s	773.92 ± 0.27 kg/m3	1.25 ± 0.024 mPa·s	769.65 ± 0.27 kg/m3
CCCCO [butan-1-ol]	2.97 ± 0.056 mPa·s	809.01 ± 0.2 kg/m3	2.547 ± 0.048 mPa·s	805.87 ± 0.2 kg/m3	2.237 ± 0.042 mPa·s	802.06 ± 0.21 kg/m3	1.98 ± 0.038 mPa·s	798.18 ± 0.21 kg/m3	1.757 ± 0.033 mPa·s	794.26 ± 0.21 kg/m3	1.568 ± 0.03 mPa·s	790.3 ± 0.21 kg/m3	1.404 ± 0.027 mPa·s	786.29 ± 0.21 kg/m3	1.255 ± 0.024 mPa·s	782.02 ± 0.21 kg/m3	1.132 ± 0.022 mPa·s	777.81 ± 0.21 kg/m3
CCC(C)O (centres undefined) [butan-2-ol]	3.742 ± 0.071 mPa·s	807.17 ± 0.2 kg/m3	3.093 ± 0.059 mPa·s	803.05 ± 0.21 kg/m3	2.579 ± 0.049 mPa·s	798.85 ± 0.21 kg/m3	2.147 ± 0.041 mPa·s	794.55 ± 0.21 kg/m3	1.826 ± 0.035 mPa·s	790.16 ± 0.21 kg/m3	1.555 ± 0.03 mPa·s	785.66 ± 0.21 kg/m3	1.337 ± 0.025 mPa·s	781.05 ± 0.21 kg/m3	1.142 ± 0.022 mPa·s	776.34 ± 0.21 kg/m3	0.992 ± 0.019 mPa·s	771.51 ± 0.21 kg/m3
